Experiments:
Type in all cases: in vivo
[1] = system: barnyardgrass (Echinochloa crus-galli); assay: Test G Pre-Emergence Protocol; conditions: Echinochloa crus-galli, pre-emergence, 312 h, evaluated after 13 days; for pest or weed control at 15.625 g/ha: 15.625 g ai/ha, read-out: Barnyard grass damage rating (100=total damage to plant; 0=no damage to plant); for pest or weed control at 62.5 g/ha: 62.5 g ai/ha, 100=total damage to plant, 0=no damage to plant, read-out: plant damage rating, Barnyardgrass; for pest or weed control at 250 g/ha: 250 g ai/ha, read-out: Barnyardgrass damage rating (100=total damage to plant; 0=no damage to plant)
Procedure, shortened: (§1)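 Glasshouse pre-emergence test: soil-sown seeds, sprayed after 1 d at 15.625, 62.5 or 250 g/ha. Conditions 24/16° C day/night, 14 h light, 65% humidity, watering twice daily. Rating 13 d post-spray (100 = total damage).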

[2] = system: corn (Zea mays); assay: Test G Pre-Emergence Protocol; conditions: Zea mays, pre-emergence, 312 h, evaluated after 13 days; for plant injury at 15.625 g/ha: 15.625 g ai/ha; for plant injury at 15.625 g/ha / plant injury at 250 g/ha: read-out: Corn damage rating (100=total damage to plant; 0=no damage to plant); for plant injury at 62.5 g/ha: 62.5 g ai/ha, 100=total damage to plant, 0=no damage to plant, read-out: plant damage rating, Corn; for plant injury at 250 g/ha: 250 g ai/ha
Procedure, shortened: as §1

[3] = system: giant foxtail (Setaria faberi); assay: Test G Pre-Emergence Protocol; conditions: Setaria faberi, pre-emergence, 312 h, evaluated after 13 days; for pest or weed control at 15.625 g/ha: 15.625 g ai/ha; for pest or weed control at 15.625 g/ha / pest or weed control at 250 g/ha: read-out: Foxtail, Giant damage rating (100=total damage to plant; 0=no damage to plant); for pest or weed control at 62.5 g/ha: 62.5 g ai/ha, 100=total damage to plant, 0=no damage to plant, read-out: plant damage rating, Foxtail, Giant; for pest or weed control at 250 g/ha: 250 g ai/ha
Procedure, shortened: as §1

[4] = system: ivy-leaved morning glory (Ipomoea hederacea); assay: Test G Pre-Emergence Protocol; conditions: Ipomoea, pre-emergence, 312 h, evaluated after 13 days; for pest or weed control at 15.625 g/ha: 15.625 g ai/ha, read-out: Morning-glory, Ivy-leaved damage rating (100=total damage to plant; 0=no damage to plant); for pest or weed control at 62.5 g/ha: 62.5 g ai/ha, 100=total damage to plant, 0=no damage to plant, read-out: plant damage rating, Morningglory, Ivy-leaved; for pest or weed control at 250 g/ha: 250 g ai/ha, read-out: Morningglory, Ivy-leaved damage rating (100=total damage to plant; 0=no damage to plant)
Procedure, shortened: as §1

[5] = system: redroot pigweed (Amaranthus retroflexus); assay: Test G Pre-Emergence Protocol; conditions: Amaranthus retroflexus, pre-emergence, 312 h, evaluated after 13 days; for pest or weed control at 15.625 g/ha: 15.625 g ai/ha; for pest or weed control at 15.625 g/ha / pest or weed control at 250 g/ha: read-out: Pigweed, Redroot damage rating (100=total damage to plant; 0=no damage to plant); for pest or weed control at 62.5 g/ha: 62.5 g ai/ha, 100=total damage to plant, 0=no damage to plant, read-out: plant damage rating, Pigweed, Redroot; for pest or weed control at 250 g/ha: 250 g ai/ha
Procedure, shortened: as §1

[6] = system: velvetleaf (Abutilon theophrasti); assay: Test G Pre-Emergence Protocol; conditions: Abutilon theophrasti, pre-emergence, 312 h, evaluated after 13 days; for pest or weed control at 15.625 g/ha: 15.625 g ai/ha; for pest or weed control at 15.625 g/ha / pest or weed control at 250 g/ha: read-out: Velvetleaf damage rating (100=total damage to plant; 0=no damage to plant); for pest or weed control at 62.5 g/ha: 62.5 g ai/ha, 100=total damage to plant, 0=no damage to plant, read-out: plant damage rating, Velvetleaf; for pest or weed control at 250 g/ha: 250 g ai/ha
Procedure, shortened: as §1

[7] = system: barnyardgrass (Echinochloa crus-galli); assay: Test G Post-Emergence Protocol; conditions: Echinochloa crus-galli, post-emergence, 312 h; for pest or weed control at 15.625 g/ha: 15.625 g ai/ha, evaluated after 13 days (100=total damage to plant; 0=no damage to plant), read-out: Barnyardgrass damage rating; for pest or weed control at 62.5 g/ha: 62.5 g ai/ha, read-out: Barnyardgrass damage rating (100=total damage to plant; 0=no damage to plant); for pest or weed control at 62.5 g/ha / pest or weed control at 250 g/ha: evaluated after 13 days; for pest or weed control at 250 g/ha: 250 g ai/ha, read-out: damage to plant, Barnyardgrass (100=total damage to plant; 0=no damage to plant)
Procedure, shortened: (§2)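 Pot-grown seedlings, 8 days old, raised in a glasshouse at 24/16 °C day/night with 14 h light and 65% humidity, were sprayed post-emergence with test compound in acetone/water (50:50) plus 0.5% Tween 20 at 15.625, 62.5 or 250 g/ha. Damage was scored visually 13 days later on a 0–100 scale (100 = total damage).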

[8] = system: corn (Zea mays); assay: Test G Post-Emergence Protocol; conditions: Zea mays, post-emergence, 312 h; for plant injury at 15.625 g/ha: 15.625 g ai/ha, evaluated after 13 days (100=total damage to plant; 0=no damage to plant), read-out: Corn damage rating; for plant injury at 62.5 g/ha: 62.5 g ai/ha, read-out: Corn damage rating (100=total damage to plant; 0=no damage to plant); for plant injury at 62.5 g/ha / plant injury at 250 g/ha: evaluated after 13 days; for plant injury at 250 g/ha: 250 g ai/ha, read-out: damage to plant, Corn (100=total damage to plant; 0=no damage to plant)
Procedure, shortened: as §2

[9] = system: giant foxtail (Setaria faberi); assay: Test G Post-Emergence Protocol; conditions: Setaria faberi, post-emergence, 312 h; for pest or weed control at 15.625 g/ha: 15.625 g ai/ha, evaluated after 13 days (100=total damage to plant; 0=no damage to plant), read-out: Foxtail, Giant damage rating; for pest or weed control at 62.5 g/ha: 62.5 g ai/ha, read-out: Foxtail, Giant damage rating (100=total damage to plant; 0=no damage to plant); for pest or weed control at 62.5 g/ha / pest or weed control at 250 g/ha: evaluated after 13 days; for pest or weed control at 250 g/ha: 250 g ai/ha, read-out: damage to plant, Foxtail, Giant (100=total damage to plant; 0=no damage to plant)
Procedure, shortened: as §2

[10] = system: ivy-leaved morning glory (Ipomoea hederacea); assay: Test G Post-Emergence Protocol; conditions: Ipomoea, post-emergence, 312 h; for pest or weed control at 15.625 g/ha: 15.625 g ai/ha, evaluated after 13 days (100=total damage to plant; 0=no damage to plant), read-out: Morningglory, Ivy-leaved damage rating; for pest or weed control at 62.5 g/ha: 62.5 g ai/ha, read-out: Morningglory, Ivy-leaved damage rating (100=total damage to plant; 0=no damage to plant); for pest or weed control at 62.5 g/ha / pest or weed control at 250 g/ha: evaluated after 13 days; for pest or weed control at 250 g/ha: 250 g ai/ha, read-out: damage to plant, Morningglory, Ivy-leaved (100=total damage to plant; 0=no damage to plant)
Procedure, shortened: as §2

[11] = system: redroot pigweed (Amaranthus retroflexus); assay: Test G Post-Emergence Protocol; conditions: Amaranthus retroflexus, post-emergence, 312 h; for pest or weed control at 15.625 g/ha: 15.625 g ai/ha, evaluated after 13 days (100=total damage to plant; 0=no damage to plant), read-out: Pigweed, Redroot damage rating; for pest or weed control at 62.5 g/ha: 62.5 g ai/ha, read-out: Pigweed, Redroot damage rating (100=total damage to plant; 0=no damage to plant); for pest or weed control at 62.5 g/ha / pest or weed control at 250 g/ha: evaluated after 13 days; for pest or weed control at 250 g/ha: 250 g ai/ha, read-out: damage to plant, Pigweed, Redroot (100=total damage to plant; 0=no damage to plant)
Procedure, shortened: as §2

[12] = system: velvetleaf (Abutilon theophrasti); assay: Test G Post-Emergence Protocol; conditions: Abutilon theophrasti, post-emergence, 312 h; for pest or weed control at 15.625 g/ha: 15.625 g ai/ha, evaluated after 13 days (100=total damage to plant; 0=no damage to plant), read-out: Velvetleaf damage rating; for pest or weed control at 62.5 g/ha: 62.5 g ai/ha, read-out: Velvetleaf damage rating (100=total damage to plant; 0=no damage to plant); for pest or weed control at 62.5 g/ha / pest or weed control at 250 g/ha: evaluated after 13 days; for pest or weed control at 250 g/ha: 250 g ai/ha, read-out: damage to plant, Velvetleaf (100=total damage to plant; 0=no damage to plant)
Procedure, shortened: as §2

SMILES | pest or weed control at 15.625 g/ha [1] [%] | pest or weed control at 62.5 g/ha [1] [%] | pest or weed control at 250 g/ha [1] [%] | plant injury at 15.625 g/ha [2] [%] | plant injury at 62.5 g/ha [2] [%] | plant injury at 250 g/ha [2] [%] | pest or weed control at 15.625 g/ha [3] [%] | pest or weed control at 62.5 g/ha [3] [%] | pest or weed control at 250 g/ha [3] [%] | pest or weed control at 15.625 g/ha [4] [%] | pest or weed control at 62.5 g/ha [4] [%] | pest or weed control at 250 g/ha [4] [%] | pest or weed control at 15.625 g/ha [5] [%] | pest or weed control at 62.5 g/ha [5] [%] | pest or weed control at 250 g/ha [5] [%] | pest or weed control at 15.625 g/ha [6] [%] | pest or weed control at 62.5 g/ha [6] [%] | pest or weed control at 250 g/ha [6] [%] | pest or weed control at 15.625 g/ha [7] [%] | pest or weed control at 62.5 g/ha [7] [%] | other results
Cc1nc(NC(=O)[C@@H]2C(=O)N(C)C[C@H]2c2ccc(C(F)(F)F)cc2)ccc1Cl (racemic) [Compound 1642] | 0 | 0 | 0 | 0 | 0 | 10 | 0 | 0 | 20 | 0 | 0 | 0 | 0 | 0 | 0 | 0 | 0 | 0 | 0 | 0 | pest or weed control at 250 g/ha [7]: 10%; plant injury at 15.625 g/ha [8]: 0%; plant injury at 62.5 g/ha [8]: 0%; plant injury at 250 g/ha [8]: 0%; pest or weed control at 15.625 g/ha [9]: 0%; pest or weed control at 62.5 g/ha [9]: 30%; pest or weed control at 250 g/ha [9]: 70%; pest or weed control at 15.625 g/ha [10]: 0%; pest or weed control at 62.5 g/ha [10]: 0%; pest or weed control at 250 g/ha [10]: 0%; pest or weed control at 15.625 g/ha [11]: 0%; pest or weed control at 62.5 g/ha [11]: 0%; pest or weed control at 250 g/ha [11]: 20%; pest or weed control at 15.625 g/ha [12]: 0%; pest or weed control at 62.5 g/ha [12]: 0%; pest or weed control at 250 g/ha [12]: 0%
CN1C[C@H](c2cccc(C(F)F)c2)[C@@H](C(=O)Nc2ccccc2F)C1=O (racemic) [Compound 1464] | 80 | 90 | 90 | 0 | 50 | 80 | 80 | 90 | 90 | 0 | 30 | 70 | 0 | 0 | 0 | 0 | 0 | 0 | 20 | 20 | pest or weed control at 250 g/ha [7]: 50%; plant injury at 15.625 g/ha [8]: 20%; plant injury at 62.5 g/ha [8]: 10%; plant injury at 250 g/ha [8]: 80%; pest or weed control at 15.625 g/ha [9]: 70%; pest or weed control at 62.5 g/ha [9]: 70%; pest or weed control at 250 g/ha [9]: 70%; pest or weed control at 15.625 g/ha [10]: 10%; pest or weed control at 62.5 g/ha [10]: 20%; pest or weed control at 250 g/ha [10]: 50%; pest or weed control at 15.625 g/ha [11]: 10%; pest or weed control at 62.5 g/ha [11]: 10%; pest or weed control at 250 g/ha [11]: 30%; pest or weed control at 15.625 g/ha [12]: 10%; pest or weed control at 62.5 g/ha [12]: 0%; pest or weed control at 250 g/ha [12]: 10%
CN1C[C@@H](c2ccc(C(F)(F)F)cc2)[C@H](C(=O)Nc2ccc(F)c(Cl)c2F)C1=O (racemic) [Compound 1628] | 10 | 0 | 70 | 0 | 0 | 0 | 50 | 50 | 80 | 20 | 0 | 20 | 0 | 30 | 50 | 0 | 0 | 0 | 30 | 70 | pest or weed control at 250 g/ha [7]: 70%; plant injury at 15.625 g/ha [8]: 0%; plant injury at 62.5 g/ha [8]: 0%; plant injury at 250 g/ha [8]: 50%; pest or weed control at 15.625 g/ha [9]: 70%; pest or weed control at 62.5 g/ha [9]: 80%; pest or weed control at 250 g/ha [9]: 80%; pest or weed control at 15.625 g/ha [10]: 20%; pest or weed control at 62.5 g/ha [10]: 20%; pest or weed control at 250 g/ha [10]: 50%; pest or weed control at 15.625 g/ha [11]: 10%; pest or weed control at 62.5 g/ha [11]: 50%; pest or weed control at 250 g/ha [11]: 60%; pest or weed control at 15.625 g/ha [12]: 30%; pest or weed control at 62.5 g/ha [12]: 20%; pest or weed control at 250 g/ha [12]: 20%
